The source of these data is ChEMBL document CHEMBL1132869, “The first synthesis of clausenamine-A and cytotoxic activities of three biscarbazole analogues against cancer cells” (2000).

Common to all, as to conditions: Homo sapiens
One assay has as its system A498. Nature of the assay: In vitro inhibitory activity against A-498 […] cancer cell lines. It is filed as functional.
A further assay concerns CAKI-1. The experiment in a line: In vitro inhibitory activity against CAKI-1 […] cancer cell lines. It is filed as functional.
The subject of a further assay is HL-60. Nature of the assay: In vitro inhibitory activity against HL-60 cancer cell lines. The assay is classed as functional.
The test system of the next assay is HT-29. The experiment in a line: In vitro inhibitory activity against HT-29 colon cancer cell lines. It is filed as functional.
The subject of another assay is K562. The experiment in a line: In vitro inhibitory activity against K-562 cancer cell lines. It is filed as functional.
The test system of the next assay is MCF7. The experiment in a line: In vitro inhibitory activity against MCF-7 breast cancer cell lines. The assay is classed as functional.
Another assay deals with MDA-MB-435. The experiment in a line: In vitro inhibitory activity against MDA-MB-435 breast cancer cell lines. The assay is classed as functional.
The test system of the next assay is MDA-N. Nature of the assay: In vitro inhibitory activity against MDA-N breast cancer cell lines. It is filed as functional.
The test system of the next assay is MOLT-4. The experiment in a line: In vitro inhibitory activity against MOLT-4 cancer cell lines. It is filed as functional.
The next assay has as its system OVCAR-5. The experiment in a line: In vitro inhibitory activity against OVCAR-5 ovarian cancer cell lines. It is filed as functional.
In a further assay the test system is RPMI-8226. The experiment in a line: In vitro inhibitory activity against […] cancer cell lines. The assay is classed as functional.
The test system of the next assay is SR. Nature of the assay: In vitro inhibitory activity against SR cancer cell lines. It is filed as functional.
The next assay has as its system SF-295. The experiment in a line: In vitro inhibitory activity against SF-295 […] cancer cell lines. The assay is classed as functional.
The test system of another assay is SK-MEL-5. The experiment in a line: In vitro inhibitory activity against SK-MEL-5 melanoma cancer cell lines. The assay is classed as functional.
For a further assay, the system named is UO-31. Nature of the assay: In vitro inhibitory activity against UO-31 renal cancer cell lines. It is filed as functional.
In the next assay the test system is HCT-15. The experiment in a line: In vitro inhibitory activity against HCT-15 colon cancer cell lines. The assay is classed as functional.
The test system of another assay is NCI-H23. The experiment in a line: In vitro inhibitory activity against NIC-H23 lung cancer cell lines.

As for `COc1ccc2[nH]c3c(O)c(-c4c(C)cc5c([nH]c6ccc(OC)cc65)c4O)c(C)cc3c2c1`, the 50% growth inhibitory concentration (GI50) (in general, the concentration that inhibits growth by half) stood at 4.78 µM in the assay on A498; 4.27 µM in the assay with CAKI-1; 0.0321 µM in the assay with HL-60; 3.71 µM with HT-29; 4.04 µM in the assay on K562; 4.49 µM in the assay on MCF7. Also, the GI50 is 4.34 µM with MDA-MB-435; 4.5 µM in the assay on MDA-N; 3.23 µM in the assay on MOLT-4; 3.82 µM in the assay with OVCAR-5; 3.61 µM with RPMI-8226; 3.97 µM in the assay with SR. Moreover, the GI50 in the assay on SF-295 was found to be 5.11 µM; in the assay with SK-MEL-5, 4.34 µM; in the assay on UO-31, 3.78 µM; in the assay on HCT-15, 4.2 µM; in the assay with NCI-H23, 4.48 µM.
For `Cc1cc2c([nH]c3ccccc32)c(O)c1-c1c(C)cc2c([nH]c3ccccc32)c1O`, the GI50 amounted to 15.9 µM with A498; 14.7 µM with CAKI-1; 32.9 µM in the assay with HL-60; 6.04 µM in the assay with HT-29; 12.3 µM with K562; 11.2 µM with MCF7. Besides, the concentration for 50% growth inhibition (GI50) was 15 µM with MDA-MB-435; 14.7 µM with MDA-N; 3.62 µM with MOLT-4; 15 µM in the assay with OVCAR-5; 3.85 µM with RPMI-8226; 3.16 µM in the assay on SR. In addition, the GI50 is 17.4 µM with SF-295; 16.5 µM in the assay on SK-MEL-5; 13 µM with UO-31; 10.1 µM with HCT-15; 12.4 µM with NCI-H23.
On to `COc1cc(OC)c2[nH]c3c(O)c(-c4c(C)cc5c([nH]c6c(OC)cc(OC)cc65)c4O)c(C)cc3c2c1`, for which the GI50 in the assay on A498 was 7.82 µM; in the assay on CAKI-1 it was 9.89 µM; with HL-60, 2.82 µM; with HT-29 it was 8.03 µM; with K562, 9.7 µM; in the assay with MCF7, 8.68 µM. Moreover, the GI50 stood at 12 µM with MDA-MB-435; 8.83 µM in the assay on MDA-N; 8.59 µM in the assay on MOLT-4; 9.03 µM with OVCAR-5; 10.5 µM in the assay with RPMI-8226; 9.01 µM in the assay with SR. Further, the GI50 in the assay with SF-295 stood at 10.2 µM; with SK-MEL-5 it was 8.38 µM; in the assay on UO-31, 6.84 µM; with HCT-15, 8.28 µM; with NCI-H23, 8.2 µM.
